Assays:
[1] = biological target: T1, Mitogen-activated protein kinase 10 (Homo sapiens, UniProt P53779); test: Inhibition of JNK3 (unknown origin)
[2] = biological target: T1, Mitogen-activated protein kinase 10; test: Inhibition of JNK3 (unknown origin) at 1 uM relative to control
[3] = species on record: Homo sapiens; test: RatioIC50 for inhibition of […] (unknown origin)
[4] = biological target: T2, Platelet-derived growth factor receptor alpha (Homo sapiens, UniProt P16234); test: Inhibition of PDGFRalpha (unknown origin) at 1 uM relative to control
T2 sequence (P16234 whole entry, the tested form may be a part): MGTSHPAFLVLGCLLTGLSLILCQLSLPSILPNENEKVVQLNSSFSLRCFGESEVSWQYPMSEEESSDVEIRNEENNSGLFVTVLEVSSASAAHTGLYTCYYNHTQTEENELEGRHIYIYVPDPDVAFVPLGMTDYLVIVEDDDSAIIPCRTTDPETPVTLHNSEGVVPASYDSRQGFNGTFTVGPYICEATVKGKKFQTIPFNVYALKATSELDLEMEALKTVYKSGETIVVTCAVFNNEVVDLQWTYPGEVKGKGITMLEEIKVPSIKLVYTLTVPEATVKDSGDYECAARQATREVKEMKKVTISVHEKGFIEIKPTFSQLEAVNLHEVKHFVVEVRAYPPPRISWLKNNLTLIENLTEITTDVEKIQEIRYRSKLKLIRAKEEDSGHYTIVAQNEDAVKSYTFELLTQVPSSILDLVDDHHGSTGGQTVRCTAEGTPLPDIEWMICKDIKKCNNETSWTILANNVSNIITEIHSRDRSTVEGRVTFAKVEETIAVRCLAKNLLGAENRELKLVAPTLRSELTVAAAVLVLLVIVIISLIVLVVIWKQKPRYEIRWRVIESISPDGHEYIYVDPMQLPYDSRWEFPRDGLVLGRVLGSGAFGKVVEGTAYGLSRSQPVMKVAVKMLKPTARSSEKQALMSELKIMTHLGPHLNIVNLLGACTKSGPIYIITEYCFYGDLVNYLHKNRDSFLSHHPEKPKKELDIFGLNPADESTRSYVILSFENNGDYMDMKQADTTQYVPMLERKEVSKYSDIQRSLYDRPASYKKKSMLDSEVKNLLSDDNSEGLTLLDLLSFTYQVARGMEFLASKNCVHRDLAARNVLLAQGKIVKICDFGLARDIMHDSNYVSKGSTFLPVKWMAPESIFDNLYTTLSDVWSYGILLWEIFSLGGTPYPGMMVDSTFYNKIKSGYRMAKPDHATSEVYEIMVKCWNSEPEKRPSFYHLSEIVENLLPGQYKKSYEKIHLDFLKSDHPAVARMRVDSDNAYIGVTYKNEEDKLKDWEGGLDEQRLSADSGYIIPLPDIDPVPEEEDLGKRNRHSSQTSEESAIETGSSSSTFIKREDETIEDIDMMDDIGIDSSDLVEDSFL

[5] = biological target: T1, Mitogen-activated protein kinase 10; test: Inhibition of JNK3 in human HEK293 cells transfected with JNK3-NanoLuc fusion vector measured after 1 hr by NanoBRET assay; assay type: cell-based
[6] = biological target: Voltage-gated inwardly rectifying potassium channel KCNH2 (Homo sapiens, UniProt Q12809); test: Inhibition of hERG measured by fluorescence polarization assay
Chain of Voltage-gated inwardly rectifying potassium channel KCNH2 (Q12809 whole entry): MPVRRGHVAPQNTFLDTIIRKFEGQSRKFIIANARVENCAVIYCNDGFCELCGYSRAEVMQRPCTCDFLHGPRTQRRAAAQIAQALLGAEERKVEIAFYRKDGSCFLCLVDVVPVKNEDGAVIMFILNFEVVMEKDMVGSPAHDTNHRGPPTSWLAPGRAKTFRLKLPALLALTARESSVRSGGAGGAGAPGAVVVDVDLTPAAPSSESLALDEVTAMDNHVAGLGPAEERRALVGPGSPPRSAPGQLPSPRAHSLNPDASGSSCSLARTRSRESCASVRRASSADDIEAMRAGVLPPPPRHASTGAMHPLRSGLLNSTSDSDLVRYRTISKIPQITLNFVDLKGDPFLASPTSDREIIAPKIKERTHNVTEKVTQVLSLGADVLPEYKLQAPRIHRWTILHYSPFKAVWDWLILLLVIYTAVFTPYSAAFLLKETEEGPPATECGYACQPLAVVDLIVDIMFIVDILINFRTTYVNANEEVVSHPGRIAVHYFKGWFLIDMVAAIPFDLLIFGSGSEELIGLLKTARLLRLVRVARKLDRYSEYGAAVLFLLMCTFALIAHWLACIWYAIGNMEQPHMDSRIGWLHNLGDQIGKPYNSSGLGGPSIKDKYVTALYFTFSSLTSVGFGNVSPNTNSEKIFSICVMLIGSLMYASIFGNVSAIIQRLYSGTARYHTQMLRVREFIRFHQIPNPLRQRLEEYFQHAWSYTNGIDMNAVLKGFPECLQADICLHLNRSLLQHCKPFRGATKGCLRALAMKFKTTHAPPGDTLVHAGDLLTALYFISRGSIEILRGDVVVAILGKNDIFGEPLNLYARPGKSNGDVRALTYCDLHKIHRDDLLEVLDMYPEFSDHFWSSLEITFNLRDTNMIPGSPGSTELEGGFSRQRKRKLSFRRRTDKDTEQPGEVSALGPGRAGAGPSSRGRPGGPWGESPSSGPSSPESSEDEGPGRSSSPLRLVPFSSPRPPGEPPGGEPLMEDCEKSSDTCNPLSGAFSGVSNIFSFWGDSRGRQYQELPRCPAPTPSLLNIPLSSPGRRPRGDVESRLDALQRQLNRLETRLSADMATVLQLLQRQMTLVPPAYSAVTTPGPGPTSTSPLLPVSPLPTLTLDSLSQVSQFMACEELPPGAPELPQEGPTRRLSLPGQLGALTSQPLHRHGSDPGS

[7] = biological target: Cytochrome P450 3A4 (Homo sapiens, UniProt P08684); test: Inhibition of CYP3A4 (unknown origin) using BOMCC as a substrate; assay type: ADME
Chain of Cytochrome P450 3A4 (P08684 whole entry): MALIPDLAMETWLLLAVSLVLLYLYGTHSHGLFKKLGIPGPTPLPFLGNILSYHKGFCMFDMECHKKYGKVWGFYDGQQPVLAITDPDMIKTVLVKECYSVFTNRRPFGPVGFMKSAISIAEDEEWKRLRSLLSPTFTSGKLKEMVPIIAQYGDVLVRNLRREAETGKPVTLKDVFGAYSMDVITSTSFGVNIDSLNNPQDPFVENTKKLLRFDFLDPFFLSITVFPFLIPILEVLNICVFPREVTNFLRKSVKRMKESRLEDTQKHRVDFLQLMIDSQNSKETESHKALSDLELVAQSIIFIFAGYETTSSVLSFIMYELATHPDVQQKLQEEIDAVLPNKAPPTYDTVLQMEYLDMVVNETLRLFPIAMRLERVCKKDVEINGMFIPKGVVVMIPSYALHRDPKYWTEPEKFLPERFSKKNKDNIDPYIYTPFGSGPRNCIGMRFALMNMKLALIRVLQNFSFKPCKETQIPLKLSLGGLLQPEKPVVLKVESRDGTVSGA

[8] = biological target: Cytochrome P450 2D6 (Homo sapiens, UniProt P10635); test: Inhibition of CYP2D6 (unknown origin) using EOMCC as a substrate; assay type: ADME
Chain of Cytochrome P450 2D6 (P10635 whole entry): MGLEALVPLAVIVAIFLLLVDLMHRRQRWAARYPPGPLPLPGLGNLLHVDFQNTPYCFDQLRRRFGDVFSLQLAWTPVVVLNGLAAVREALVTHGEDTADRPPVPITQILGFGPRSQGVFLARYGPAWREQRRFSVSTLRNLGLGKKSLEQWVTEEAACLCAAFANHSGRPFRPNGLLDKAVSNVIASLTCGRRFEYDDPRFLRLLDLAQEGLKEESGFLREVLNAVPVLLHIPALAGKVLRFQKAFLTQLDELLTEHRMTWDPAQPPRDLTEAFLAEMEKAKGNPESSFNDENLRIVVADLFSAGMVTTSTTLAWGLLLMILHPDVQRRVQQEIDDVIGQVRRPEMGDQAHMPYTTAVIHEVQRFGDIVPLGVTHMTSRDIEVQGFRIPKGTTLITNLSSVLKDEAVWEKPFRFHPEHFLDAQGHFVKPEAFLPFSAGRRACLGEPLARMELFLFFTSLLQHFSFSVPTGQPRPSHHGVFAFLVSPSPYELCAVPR

[9] = test system: WI-38; test: Antiproliferative activity against human WI-38 cells measured by MTT assay; assay type: functional, cell-based
[10] = biological target: T2, Platelet-derived growth factor receptor alpha; test: Inhibition of PDGFRalpha (unknown origin)
[11] = test system: Serine/threonine-protein kinase B-raf (Homo sapiens), P15056 [V600E]; test: Inhibition of B-RAF V600E mutant (unknown origin) at 1 uM relative to control
Chain of Serine/threonine-protein kinase B-raf (Homo sapiens), P15056 [V600E] (P15056 whole entry V600E): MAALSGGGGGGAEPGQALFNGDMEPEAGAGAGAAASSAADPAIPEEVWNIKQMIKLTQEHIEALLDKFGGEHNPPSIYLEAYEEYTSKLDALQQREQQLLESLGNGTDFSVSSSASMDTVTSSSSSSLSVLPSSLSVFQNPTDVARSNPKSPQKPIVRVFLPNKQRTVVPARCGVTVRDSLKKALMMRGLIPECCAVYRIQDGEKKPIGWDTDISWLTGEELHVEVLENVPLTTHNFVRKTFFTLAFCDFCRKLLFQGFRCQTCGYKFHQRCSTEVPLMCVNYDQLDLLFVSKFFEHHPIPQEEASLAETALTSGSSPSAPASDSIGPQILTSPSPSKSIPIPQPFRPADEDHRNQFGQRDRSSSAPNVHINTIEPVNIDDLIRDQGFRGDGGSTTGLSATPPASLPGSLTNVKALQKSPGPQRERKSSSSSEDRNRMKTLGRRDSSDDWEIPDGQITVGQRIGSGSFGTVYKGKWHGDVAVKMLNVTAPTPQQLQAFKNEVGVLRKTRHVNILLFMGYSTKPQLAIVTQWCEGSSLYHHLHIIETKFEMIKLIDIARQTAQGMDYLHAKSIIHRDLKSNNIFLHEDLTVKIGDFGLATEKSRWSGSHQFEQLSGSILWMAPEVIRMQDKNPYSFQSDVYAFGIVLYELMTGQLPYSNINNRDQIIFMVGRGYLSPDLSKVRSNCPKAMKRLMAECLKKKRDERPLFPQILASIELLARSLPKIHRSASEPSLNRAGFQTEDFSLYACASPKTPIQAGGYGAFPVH

[12] = test system: HepG2; test: Antiproliferative activity against human HepG2 cells measured by MTT assay; assay type: functional, cell-based
[13] = test system: MCF7; test: Antiproliferative activity against human MCF7 cells measured after 48 hrs by SRB assay; assay type: functional, cell-based; conditions: MCF7, time 48 hrs
[14] = test system: IGROV-1; test: Antiproliferative activity against human IGROV-1 cells measured after 48 hrs by SRB assay; assay type: functional, cell-based; conditions: IGROV-1, time 48 hrs
[15] = test system: TK-10; test: Antiproliferative activity against human TK-10 cells measured after 48 hrs by SRB assay; assay type: functional, cell-based; conditions: TK-10, time 48 hrs
[16] = test system: MOLT-4; test: Antiproliferative activity against human MOLT-4 cells measured after 48 hrs by SRB assay; assay type: functional, cell-based; conditions: MOLT-4, time 48 hrs
[17] = test system: UACC-257; test: Antiproliferative activity against human UACC-257 cells measured after 48 hrs by SRB assay; assay type: functional, cell-based; conditions: UACC-257, time 48 hrs
[18] = test system: HL-60(TB); test: Antiproliferative activity against human HL-60(TB) cells measured after 48 hrs by SRB assay; assay type: functional, cell-based; conditions: HL-60, time 48 hrs
[19] = test system: HOP-92; test: Antiproliferative activity against human HOP-92 cells measured after 48 hrs by SRB assay; assay type: functional, cell-based; conditions: HOP-92, time 48 hrs
[20] = test system: ACHN; test: Antiproliferative activity against human ACHN cells measured after 48 hrs by SRB assay; assay type: functional, cell-based; conditions: time 48 hrs
[21] = test system: NCI-H23; test: Antiproliferative activity against human NCI-H23 cells measured after 48 hrs by SRB assay; assay type: functional, cell-based; conditions: NCI-H23, time 48 hrs
[22] = test system: NCI/ADR-RES; test: Antiproliferative activity against human NCI-ADR-RES cells measured after 48 hrs by SRB assay; assay type: functional, cell-based; conditions: time 48 hrs

T1 sequence (P53779 whole entry): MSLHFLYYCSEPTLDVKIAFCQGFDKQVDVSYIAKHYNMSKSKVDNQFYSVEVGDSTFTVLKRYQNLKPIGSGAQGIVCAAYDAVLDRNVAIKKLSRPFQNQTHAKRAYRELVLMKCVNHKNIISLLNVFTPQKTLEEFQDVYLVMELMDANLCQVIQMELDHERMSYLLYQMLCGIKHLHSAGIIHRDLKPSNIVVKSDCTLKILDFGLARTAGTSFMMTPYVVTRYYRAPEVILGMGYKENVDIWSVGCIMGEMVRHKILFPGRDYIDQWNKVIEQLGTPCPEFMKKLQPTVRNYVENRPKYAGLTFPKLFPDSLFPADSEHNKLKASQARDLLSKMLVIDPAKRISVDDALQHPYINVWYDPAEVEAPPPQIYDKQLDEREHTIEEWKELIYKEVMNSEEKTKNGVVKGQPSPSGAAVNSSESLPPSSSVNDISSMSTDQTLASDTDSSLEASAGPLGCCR

## O=C(Nc1ccc(F)cc1)N1CCN(c2cc(-c3cn(-c4ccccc4)nc3-c3cccc(O)c3)ccn2)CC1
[1]
  IC50: > 1 µM
[2]
  inhibition: 8%

## O=C(NCCNc1cc(-c2cn(-c3ccccc3)nc2-c2cccc(O)c2)ccn1)Nc1cccc(C(F)(F)F)c1
[3]
  Ratio IC50: 10.1
[4]
  inhibition: 50%
[5]
  IC50: 3.92 µM
[6]
  IC50: > 50 µM
[7]
  IC50: 20.5 µM
[8]
  IC50: 6.24 µM
[1]
  IC50: 0.099 µM
[2]
  inhibition: 84%
[9]
  IC50: 18.5 µM
[10]
  IC50: 1 µM
[11]
  inhibition: 9%
[12]
  IC50: 1.56 µM

## O=C(NCCCNc1cc(-c2cn(-c3ccccc3)nc2-c2cccc(O)c2)ccn1)Nc1ccc(Cl)c(Cl)c1
[1]
  IC50: > 1 µM
[2]
  inhibition: 13%

## O=C(Nc1cccc(C(F)(F)F)c1)N1CCN(c2cc(-c3cn(-c4ccccc4)nc3-c3cccc(O)c3)ccn2)CC1
[1]
  IC50: > 1 µM
[2]
  inhibition: 17%

## COc1cccc(-c2nn(-c3ccccc3)cc2-c2ccnc(N3CCN(C(=O)Nc4ccc(Cl)c(Cl)c4)CC3)c2)c1
[1]
  IC50: > 1 µM
[2]
  inhibition: 4%

## O=C(NCCNc1cc(-c2cn(-c3ccccc3)nc2-c2cccc(O)c2)ccn1)Nc1cc(C(F)(F)F)cc(C(F)(F)F)c1
[1]
  IC50: > 1 µM
[2]
  inhibition: 19%

## O=C(Nc1cc(C(F)(F)F)cc(C(F)(F)F)c1)N1CCN(c2cc(-c3cn(-c4ccccc4)nc3-c3cccc(O)c3)ccn2)CC1
[1]
  IC50: > 1 µM
[2]
  inhibition: 1%

## O=C(NCCCNc1cc(-c2cn(-c3ccccc3)nc2-c2cccc(O)c2)ccn1)Nc1cc(C(F)(F)F)cc(C(F)(F)F)c1
[1]
  IC50: > 1 µM
[2]
  inhibition: 0%

## O=C(NCCNc1cc(-c2cn(-c3ccccc3)nc2-c2cccc(O)c2)ccn1)Nc1ccc(Cl)c(C(F)(F)F)c1
[1]
  IC50: > 1 µM
[2]
  inhibition: 38%

## COc1cccc(-c2nn(-c3ccccc3)cc2-c2ccnc(N3CCN(C(=O)Nc4cccc(C(F)(F)F)c4)CC3)c2)c1
[1]
  IC50: > 1 µM
[2]
  inhibition: 10%

## CNC(=O)c1cc(Oc2ccc(NC(=O)Nc3ccc(Cl)c(C(F)(F)F)c3)cc2)ccn1 [SORAFENIB]
[13]
  TGI: 7.94 µM
[14]
  TGI: 10 µM
[15]
  TGI: 10 µM
[16]
  TGI: 100 µM
[17]
  TGI: 5.01 µM
[18]
  TGI: 100 µM
[19]
  TGI: 5.01 µM
[20]
  TGI: 10 µM
[21]
  TGI: 5.01 µM
[9]
  IC50: 14.7 µM
[22]
  TGI: 7.94 µM

## O=C(NCCNc1cc(-c2cn(-c3ccccc3)nc2-c2cccc(O)c2)ccn1)Nc1ccc(Cl)c(Cl)c1
[1]
  IC50: 0.526 µM
[2]
  inhibition: 69%
[9]
  IC50: 17.4 µM
[12]
  IC50: 2.84 µM

## COc1cccc(-c2nn(-c3ccccc3)cc2-c2ccnc(N3CCN(C(=O)Nc4ccc(Cl)c(C(F)(F)F)c4)CC3)c2)c1
[1]
  IC50: > 1 µM
[2]
  inhibition: 7%

## O=C(NCCCNc1cc(-c2cn(-c3ccccc3)nc2-c2cccc(O)c2)ccn1)Nc1ccc(Cl)c(C(F)(F)F)c1
[1]
  IC50: 0.614 µM
[2]
  inhibition: 63%

## O=C(NCCNc1cc(-c2cn(-c3ccccc3)nc2-c2cccc(O)c2)ccn1)Nc1ccc(F)cc1
[1]
  IC50: 0.189 µM
[2]
  inhibition: 83%

## COc1cccc(-c2nn(-c3ccccc3)cc2-c2ccnc(N3CCN(C(=O)Nc4ccccc4)CC3)c2)c1
[1]
  IC50: > 1 µM
[2]
  inhibition: 8%

## COc1cccc(-c2nn(-c3ccccc3)cc2-c2ccnc(N3CCN(C(=O)Nc4cc(C(F)(F)F)cc(C(F)(F)F)c4)CC3)c2)c1
[1]
  IC50: > 1 µM
[2]
  inhibition: 9%

## COc1cccc(-c2nn(-c3ccccc3)cc2-c2ccnc(N3CCN(C(=O)Nc4ccc(F)cc4)CC3)c2)c1
[1]
  IC50: > 1 µM
[2]
  inhibition: 0%

## O=C(Nc1ccccc1)N1CCN(c2cc(-c3cn(-c4ccccc4)nc3-c3cccc(O)c3)ccn2)CC1
[1]
  IC50: > 1 µM
[2]
  inhibition: 6%

## O=C(Nc1ccc(Cl)c(Cl)c1)N1CCN(c2cc(-c3cn(-c4ccccc4)nc3-c3cccc(O)c3)ccn2)CC1
[1]
  IC50: > 1 µM
[2]
  inhibition: 3%

— ChEMBL document CHEMBL5113453, “Design, synthesis, and biological evaluation of a new series of pyrazole derivatives: Discovery of potent and selective JNK3 kinase inhibitors” (Bioorg Med Chem, 2022)
